{"source": "patent US8440837B2", "about": "“2-substituted-ethynylthiazole derivatives and uses of same” (H. Lundbeck A/S, priority 2009, dated 2013)", "biological_target": "human metabotropic glutamate receptor 5 (hmGluR5) (UniProt P31424)", "experiment": "Calcium mobilization (FLIPR) assay, positive allosteric modulation of the EC20 glutamate response", "format": "cell-based", "conditions": "HEK 293 cells; for maximum modulation (Emax): EC20 glutamate response; for pEC50: increase in EC20 glutamate response", "method": "The cDNA for human metabotropic glutamate receptor 5 (hmGluR5) was a generous gift from S. Nakanishi (Kyoto University, Kyoto, Japan). The […] was stably expressed in a HEK 293 cell line and grown in Dulbecco's Modified Eagle Medium (DMEM) (Invitrogen, Carlsbad, Calif.) with supplements (10% bovine calf serum, 4 mM glutamine, 100 units/mL penicillin, 100 μg/mL streptomycin and […]) at 37° C., 5% CO2. Twenty-four hours prior to assay, cells were seeded into 384-well black wall microtiter plates coated with poly-D-lysine. Just prior to assay, media was aspirated and cells dye-loaded (25 μL/well) with 3 μM Fluo-4/0.01% pluronic acid in assay buffer (Hank's Balanced Saline Solution (HBSS)): 150 mM NaCl, 5 mM KCl, 1 mM CaCl2, 1 mM MgCl2, plus 20 mM N-2-Hydroxyethylpiperazine-N′-2-ethanesulfonic acid (HEPES), pH 7.4, 0.1% bovine serum albumin (BSA) and 2.5 mM probenicid) for 1 hour in 5% CO2 at 37° C. After excess dye was discarded, cells were washed in assay buffer and layered with a final volume equal to 30 μL/well. Basal fluorescence is monitored in a fluorometric imaging plate reader (FLIPR) (Molecular Devices, Sunnyvale, Calif.) with an excitation wavelength of 488 nm and an emission range of 500 to 560 nm. Laser excitation energy was adjusted so that basal fluorescence readings were approximately 10,000 relative fluorescent units. Cells were stimulated with an EC20 or an EC80 concentration of glutamate in the presence of a compound to be tested, both diluted in assay buffer, and relative fluorescent units were measured at defined intervals (exposure=0.6 sec) over a 3 min period at room temperature. Basal readings derived from negative controls were subtracted from all samples. Maximum change in fluorescence was calculated for each well. Concentration-response curves derived from the maximum change in fluorescence were analyzed by nonlinear regression (Hill equation).\nA silent allosteric modulator (SAM) can be identified by using a combination of both the calcium mobilization assay data and the radioligand binding data. As used herein, the term “silent allosteric modulator” refers to a ligand that binds to an allosteric site of the receptor but has no measurable intrinsic efficacy.", "note": "pEC50: −log10 of the molar value.", "data": [{"smiles": "COC1CCN(C(=O)c2cnc(C#Cc3ccccc3)s2)CC1", "note": "[Example 121, (4-Methoxy-piperidin-1-yl)-(2-phenylethynyl-thiazol-5-yl)-methanone]", "values": [{"measurement": "maximum modulation (Emax)", "result": 140, "unit": "%"}, {"measurement": "pEC50", "result": 7.24}]}, {"smiles": "O=C(c1cnc(C#Cc2ccccc2)s1)N1CCCC(N2CCOCC2)CC1", "note": "(stereo not shown) [Example 148, (4-Morpholin-4-yl-azepan-1-yl)-(2-phenylethynyl-thiazol-5-yl)-methanone]", "values": [{"measurement": "maximum modulation (Emax)", "result": 100, "unit": "%"}, {"measurement": "pEC50", "result": 5.47}]}, {"smiles": "CC1(O)CCN(C(=O)c2cnc(C#Cc3ccccc3)s2)CC1", "note": "[Example 80, (4-Hydroxy-4-methyl-piperidin-1-yl)-(2-phenylethynyl-thiazol-5-yl)-methanone]", "values": [{"measurement": "maximum modulation (Emax)", "result": 120, "unit": "%"}, {"measurement": "pEC50", "result": 6.54}]}, {"smiles": "CN(C)Cc1cnc(C#Cc2ccccc2)s1", "note": "[Example 212, Dimethyl-(2-phenylethynyl-thiazol-5-ylmethyl)-amine]", "values": [{"measurement": "maximum modulation (Emax)", "result": 71, "unit": "%"}, {"measurement": "pEC50", "result": 7.43}]}, {"smiles": "CCOC1CCN(C(=O)c2cnc(C#Cc3ccccc3)s2)CC1", "note": "[Example 122, (4-Ethoxy-piperidin-1-yl)-(2-phenylethynyl-thiazol-5-yl)-methanone]", "values": [{"measurement": "maximum modulation (Emax)", "result": 130, "unit": "%"}, {"measurement": "pEC50", "result": 6.66}]}, {"smiles": "Cc1nc(C#Cc2ccccc2)sc1C(=O)N1CCC(C)CC1", "note": "[Example 14, (4-Methyl-2-phenylethynyl-thiazol-5-yl)-(4-methyl-piperidin-1-yl)-methanone]", "values": [{"measurement": "maximum modulation (Emax)", "result": 91, "unit": "%"}, {"measurement": "pEC50", "result": 7.64}]}, {"smiles": "O=C(c1cnc(C#Cc2ccccc2Cl)s1)N1CCCCC1", "note": "[Example 68, [2-(2-Chloro-phenylethynyl)-thiazol-5-yl]-piperidin-1-yl-methanone]", "values": [{"measurement": "maximum modulation (Emax)", "result": 100, "unit": "%"}, {"measurement": "pEC50", "result": 6.36}]}, {"smiles": "O=C(c1cnc(C#Cc2ccccc2)s1)C1CCCCC1", "note": "[Example 238, Cyclohexyl-(2-phenylethynyl-thiazol-5-yl)-methanone]", "values": [{"measurement": "maximum modulation (Emax)", "result": 130, "unit": "%"}, {"measurement": "pEC50", "result": 6.96}]}, {"smiles": "CN1CCN(C(=O)c2cnc(C#Cc3cccc(Cl)c3)s2)CC1", "note": "[Example 158, [2-(3-Chloro-phenylethynyl)-thiazol-5-yl]-(4-methyl-piperazin-1-yl)-methanone]", "values": [{"measurement": "maximum modulation (Emax)", "result": 94, "unit": "%"}, {"measurement": "pEC50", "result": 6.85}]}, {"smiles": "C(#Cc1ncc(CN2CCCCC2)s1)c1ccccc1", "note": "[Example 206, 1-(2-Phenylethynyl-thiazol-5-ylmethyl)-piperidine]", "values": [{"measurement": "maximum modulation (Emax)", "result": 130, "unit": "%"}, {"measurement": "pEC50", "result": 7.01}]}, {"smiles": "O=C1CCN(C(=O)c2cnc(C#Cc3ccccc3)s2)C1", "note": "[Example 140, 1-(2-Phenylethynyl-thiazole-5-carbonyl)-pyrrolidin-3-one]", "values": [{"measurement": "maximum modulation (Emax)", "result": 110, "unit": "%"}, {"measurement": "pEC50", "result": 6.96}]}, {"smiles": "O=C(c1cnc(C#Cc2ccccc2)s1)N1CC(N2CCOCC2)C1", "note": "[Example 132, (3-Morpholin-4-yl-azetidin-1-yl)-(2-phenylethynyl-thiazol-5-yl)-methanone]", "values": [{"measurement": "maximum modulation (Emax)", "result": 40, "unit": "%"}, {"measurement": "pEC50", "result": 6.64}]}, {"smiles": "C(#Cc1ncc(CN2CCCC2)s1)c1ccccc1", "note": "[Example 207, 2-Phenylethynyl-5-pyrrolidin-1-ylmethyl-thiazole]", "values": [{"measurement": "maximum modulation (Emax)", "result": 110, "unit": "%"}, {"measurement": "pEC50", "result": 6.66}]}, {"smiles": "CC1CCN(C(=O)c2cnc(C#Cc3ccccc3F)s2)CC1", "note": "[Example 63, [2-(2-Fluoro-phenylethynyl)-thiazol-5-yl]-(4-methyl-piperidin-1-yl)-methanone]", "values": [{"measurement": "maximum modulation (Emax)", "result": 140, "unit": "%"}, {"measurement": "pEC50", "result": 7.70}]}, {"smiles": "COC1CCCN(C(=O)c2cnc(C#Cc3ccccc3)s2)C1", "note": "(stereo not shown) [Example 119, (3-Methoxy-piperidin-1-yl)-(2-phenylethynyl-thiazol-5-yl)-methanone]", "values": [{"measurement": "maximum modulation (Emax)", "result": 46, "unit": "%"}, {"measurement": "pEC50", "result": 6.85}]}, {"smiles": "CCN1CCN(C(=O)c2cnc(C#Cc3cccc(Cl)c3)s2)CC1", "note": "[Example 159, [2-(3-Chloro-phenylethynyl)-thiazol-5-yl]-(4-ethyl-piperazin-1-yl)-methanone]", "values": [{"measurement": "maximum modulation (Emax)", "result": 74, "unit": "%"}, {"measurement": "pEC50", "result": 6.29}]}, {"smiles": "CC(c1cnc(C#Cc2ccccc2)s1)N1CCOCC1", "note": "(stereo not shown) [Example 232, 4-[1-(2-Phenylethynyl-thiazol-5-yl)-ethyl]-morpholine]", "values": [{"measurement": "maximum modulation (Emax)", "result": 62, "unit": "%"}, {"measurement": "pEC50", "result": 6.66}]}, {"smiles": "COC1CN(Cc2cnc(C#Cc3ccccc3)s2)C1", "note": "[Example 214, 5-(3-Methoxy-azetidin-1-ylmethyl)-2-phenylethynyl-thiazole]", "values": [{"measurement": "maximum modulation (Emax)", "result": 120, "unit": "%"}, {"measurement": "pEC50", "result": 6.12}]}, {"smiles": "O=C(c1cnc(C#Cc2ccccc2)s1)N1CCC(F)(F)CC1", "note": "[Example 82, (4,4-Difluoro-piperidin-1-yl)-(2-phenylethynyl-thiazol-5-yl)-methanone]", "values": [{"measurement": "maximum modulation (Emax)", "result": 150, "unit": "%"}, {"measurement": "pEC50", "result": 8.37}]}, {"smiles": "O=C(c1cnc(C#Cc2ccccc2)s1)N1CCC(N2CCCC2)C1", "note": "(stereo not shown) [Example 141, [1,3]Bipyrrolidinyl-1-yl-(2-phenylethynyl-thiazol-5-yl)-methanone]", "values": [{"measurement": "pEC50", "result": 5.40}]}, {"smiles": "O=C(c1cnc(C#Cc2cccc(Cl)c2)s1)N1CCC(O)CC1", "note": "[Example 38, [2-(3-Chloro-phenylethynyl)-thiazol-5-yl]-(4-hydroxy-piperidin-1-yl)-methanone]", "values": [{"measurement": "maximum modulation (Emax)", "result": 42, "unit": "%"}, {"measurement": "pEC50", "result": 7.92}]}, {"smiles": "OC(c1cnc(C#Cc2ccccc2)s1)C1CCCCC1", "note": "(stereo not shown) [Example 235, Cyclohexyl-(2-phenylethynyl-thiazol-5-yl)-methanol]", "values": [{"measurement": "maximum modulation (Emax)", "result": 50, "unit": "%"}, {"measurement": "pEC50", "result": 7.28}]}, {"smiles": "O=C(c1cnc(C#Cc2ccccc2)s1)N1CCc2[nH]ncc2C1", "note": "[Example 77, (2-Phenylethynyl-thiazol-5-yl)-(1,4,6,7-tetrahydro-pyrazolo[4,3-c]pyridin-5-yl)-methanone]", "values": [{"measurement": "maximum modulation (Emax)", "result": 120, "unit": "%"}, {"measurement": "pEC50", "result": 7.00}]}, {"smiles": "O=C(c1cnc(C#Cc2ccccc2)s1)N1CC2(COC2)C1", "note": "[Example 167, (2-Oxa-6-aza-spiro[3.3]hept-6-yl)-(2-phenylethynyl-thiazol-5-yl)-methanone]", "values": [{"measurement": "maximum modulation (Emax)", "result": 150, "unit": "%"}, {"measurement": "pEC50", "result": 5.72}]}, {"smiles": "O=C(c1cnc(C#Cc2ccsc2)s1)N1CCCCC1", "note": "[Example 190, Piperidin-1-yl-(2-thiophen-3-ylethynyl-thiazol-5-yl)-methanone]", "values": [{"measurement": "maximum modulation (Emax)", "result": 78, "unit": "%"}, {"measurement": "pEC50", "result": 8.28}]}, {"smiles": "Cc1cccc(C#Cc2ncc(C(=O)N3CCC(O)CC3)s2)c1", "note": "[Example 25, (4-Hydroxy-piperidin-1-yl)-(2-m-tolylethynyl-thiazol-5-yl)-methanone]", "values": [{"measurement": "maximum modulation (Emax)", "result": 50, "unit": "%"}, {"measurement": "pEC50", "result": 7.26}]}, {"smiles": "O=C(c1cnc(C#CC2CCCCC2)s1)N1CCCCC1", "note": "[Example 200, (2-Cyclohexylethynyl-thiazol-5-yl)-piperidin-1-yl-methanone]", "values": [{"measurement": "maximum modulation (Emax)", "result": 160, "unit": "%"}, {"measurement": "pEC50", "result": 6.29}]}, {"smiles": "O=C(c1cnc(C#Cc2ccccc2)s1)N1CC2CCCC2C1", "note": "(stereo not shown) [Example 144, (Hexahydro-cyclopenta[c]pyrrol-2-yl)-(2-phenylethynyl-thiazol-5-yl)-methanone]", "values": [{"measurement": "maximum modulation (Emax)", "result": 110, "unit": "%"}, {"measurement": "pEC50", "result": 8.74}]}, {"smiles": "CC1CCN(C(=O)c2cnc(C#Cc3cccc(F)c3)s2)CC1", "note": "[Example 20]", "values": [{"measurement": "maximum modulation (Emax)", "result": 110, "unit": "%"}, {"measurement": "pEC50", "result": 9.15}]}, {"smiles": "FC1(F)CCN(Cc2cnc(C#Cc3ccccc3)s2)CC1", "note": "[Example 223, 4,4-Difluoro-1-(2-phenylethynyl-thiazol-5-ylmethyl)-piperidine]", "values": [{"measurement": "maximum modulation (Emax)", "result": 110, "unit": "%"}, {"measurement": "pEC50", "result": 7.44}]}, {"smiles": "F[C@@H]1CCN(Cc2cnc(C#Cc3ccccc3)s2)C1", "note": "[Example 230, 5-((R)-3-Fluoro-pyrrolidin-1-ylmethyl)-2-phenylethynyl-thiazole]", "values": [{"measurement": "maximum modulation (Emax)", "result": 110, "unit": "%"}, {"measurement": "pEC50", "result": 7.48}]}, {"smiles": "CN1CCN(C(=O)c2cnc(C#Cc3ccccc3)s2)CC1", "note": "[Example 42, (4-Methyl-piperazin-1-yl)-(2-phenylethynyl-thiazol-5-yl)-methanone]", "values": [{"measurement": "maximum modulation (Emax)", "result": 160, "unit": "%"}, {"measurement": "pEC50", "result": 6.28}]}, {"smiles": "O=C(c1cnc(C#Cc2ccccc2)s1)N1CCCCCC1", "note": "[Example 58, Azepan-1-yl-(2-phenylethynyl-thiazol-5-yl)-methanone]", "values": [{"measurement": "maximum modulation (Emax)", "result": 79, "unit": "%"}, {"measurement": "pEC50", "result": 8.28}]}, {"smiles": "O=C(c1cnc(C#Cc2ccc(F)cc2)s1)N1CCCCC1", "note": "[Example 30, [2-(4-Fluoro-phenylethynyl)-thiazol-5-yl]-piperidin-1-yl-methanone]", "values": [{"measurement": "maximum modulation (Emax)", "result": 110, "unit": "%"}, {"measurement": "pEC50", "result": 7.54}]}, {"smiles": "O=C(c1cnc(C#Cc2ccccc2)s1)N1CCc2sccc2C1", "note": "[Example 135, (6,7-Dihydro-4H-thieno[3,2-c]pyridin-5-yl)-(2-phenylethynyl-thiazol-5-yl)-methanone]", "values": [{"measurement": "maximum modulation (Emax)", "result": 180, "unit": "%"}, {"measurement": "pEC50", "result": 7.70}]}, {"smiles": "N#Cc1cccc(C#Cc2ncc(C(=O)N3CCCCC3)s2)c1", "note": "[Example 196, 3-[5-(Piperidine-1-carbonyl)-thiazol-2-ylethynyl]-benzonitrile]", "values": [{"measurement": "maximum modulation (Emax)", "result": 45, "unit": "%"}, {"measurement": "pEC50", "result": 7.92}]}, {"smiles": "O=C(c1cnc(C#Cc2cccnc2)s1)N1CCCCC1", "note": "[Example 188, Piperidin-1-yl-(2-pyridin-3-ylethynyl-thiazol-5-yl)-methanone]", "values": [{"measurement": "maximum modulation (Emax)", "result": 95, "unit": "%"}, {"measurement": "pEC50", "result": 5.21}]}]}
